Laboratory results: patent US20190160131A1, “METHOD FOR CELL REJUVENATION USING ROSA ROXBURGHII FRUIT EXTRACTS” (TCI CO., LTD, priority 2017, published 2019)

Tested on: human skin fibroblast CCD-966SK
Test: Chemical (etoposide)-induced telomere shortening, telomere length by qPCR
Assay type: cell-based
Details: 30 μM etoposide only, 5 days of incubation, compared to control cells (FIG. 8)
Description: Telomere length is determined based on qPCR technique. First, genomic DNA samples were extracted from cells. Next, the genomic DNA samples (20 ng) were subjected to qPCR to obtain melting curves. The qPCR was performed with a PCR thermocycler using KAPA CYBR FAST qPCR Kit (2×) (KAPA Biosystems) and primers of the telomere and the single-copy 36B4 gene (Table 2). In addition, serially diluted standards of the telomere (10- to 10^6-fold dilutions starting from 60 pg) and the 36B4 gene (10- to 10^6-fold dilutions starting from 200 pg) were prepared and subjected to qPCR under the following reaction conditions to obtain standard curves (Ct/kb): a denaturation phase at 95° C. for 10 minutes followed by 40 cycles of denaturation (95° C.) for 15 seconds and annealing (60° C.) for 1 minute. The telomere standard was an oligonucleotide having 14 repeats of TTAGGG (SEQ ID NO: 7); the standard of 36B4 gene had the nucleotide sequence of SEQ ID NO:8. Lastly, the average length of telomere in the genomic DNA samples was determined from the aforementioned standard curves and the cycle threshold values of telomere and 36B4 gene in the genomic DNA samples.
The protective effect of Rosa roxburghii fruit water extract on chromosomal telomere was investigated in human skin fibroblast CCD-966SK. […]

COc1cc([C@@H]2c3cc4c(cc3[C@@H](O[C@@H]3O[C@@H]5CO[C@@H](C)O[C@H]5[C@H](O)[C@H]3O)[C@H]3COC(=O)[C@H]23)OCO4)cc(OC)c1O [etoposide]
relative length of telomeres: significantly shortened
